Test results: patent US8003811B2, “Nitric oxide donor compounds” (Nicox S.A., priority 2008, dated 2011)

Columns and labels:
[1] = system: isolated rabbit thoracic aorta preparations; assay: Assay on vascular tone: vasorelaxation in isolated aortic rings precontracted with noradrenaline; assay type: cell-based; settings: for EC50: Oryctolagus cuniculus, read-out: EC50 (μM) ± sem
Protocol: The ability of the compounds of the invention to induce vasorelaxation in comparison to precursor compounds, was tested in vitro in isolated rabbit thoracic aorta preparations (Wanstall J. C. et al., Br. J. Pharmacol., 134:463-472, 2001). Male New Zealand rabbits were anaesthetized with thiopental-Na (50 mg/kg, iv), sacrificed by exsanguinations and then the thorax was opened and the aorta dissected. Aortic ring preparations (4 mm in length) were set up in physiological salt solution (PSS) at 37° C. in small organ chambers (5 ml). The composition of PSS was (mM): NaCl 130, NaHCO3 14.9, KH2PO4 1.2, MgSO4 1.2, HEPES 10, […] (95% O2/5% CO2; pH 7.4). Each ring was mounted under 2 g passive tension. Isometric tension was recorded with a Grass transducer (Grass FT03) attached to a BIOPAC MP150 System. Preparations were allowed to equilibrate for 1 h, and then contracted submaximally with noradrenaline (NA, 1 μM) and, when the contraction was stable, acetylcholine (ACh, 10 μM) was added. A relaxant response to ACh indicated the presence of a functional endothelium. […] When a stable precontraction was reached, a cumulative concentration-response curve to either of the vasorelaxant agents was obtained in the presence of a functional endothelium. Each arterial ring was exposed to only one combination of inhibitor and vasorelaxant. Moreover, the effect of the soluble guanylyl cyclase inhibitor ODQ (1-H-(1,2,4)-oxadiazol(4,3-a)quinoxalin-1-one) on vasorelaxation elicited by the compounds was examined preincubating the aortic rings with ODQ (10 μM) for 20 min.
Responses to relaxing agents are expressed as a percentage of residual contraction and plotted against concentration of test compound. EC50 values (where EC50 is the concentration producing 50% of the maximum relaxation to the test compound) were interpolated from these plots. During the experimental period, the plateau obtained with NA was stable without significant spontaneous loss of contraction in the aortic rings.
Furthermore, in experiments performed in the presence of ODQ (10 μM), the vasorelaxant responses to tested compounds were inhibited.

[2] = system: Human Embryonic Kidney (HEK293) cell; assay: cGMP accumulation assay; assay type: cell-based; settings: intracellular cGMP, HEK293 cells, 30 min, with L-NAME, IBMX 100 μM and BAY 41-2272 1 μM
Protocol: The ability of the compounds of the invention to increase intracellular cGMP in comparison to vehicle was tested in vitro in Human Embryonic Kidney (HEK293) cell preparations. The method followed was as that reported in literature with minor modifications (Ongini et al., PNAS 2004; 101(22):8497-502. Ronchetti et al., Eur J. Pharmacol. 2006; 532(1-2):162-9).
Briefly, HEK293 cells were washed once with Hank's Balance Salt Solution (HESS) supplemented with HEPES (10 mM), MgCl2 (5 mM) and 0.05% ascorbic acid. Then they were pre-incubated for 20 min with a nitric oxide synthase inhibitor, N-nitro-L-arginine methyl ester (L-NAME) (300 μM) so to lower endogenous NO production. The cells were then exposed for 30 min to either vehicle (DMSO 1%) or increasing concentrations of test compounds (up to 100 μM) in presence of the phosphodiesterase inhibitor, 3-isobutyl-1-methylxanthine (IBMX, 100 μM) and the NO-independent activator/modulator of soluble guanylyl-cyclase, BAY 41-2272 (1 μM). The reaction was ended by the removal of the incubating buffer and the addition of 50 μl/well of 100% ice-cold ethanol. The plate was then dried under hot air steam and the cell residues dissolved, extracted and analysed using commercially available cyclic GMP enzyme immunoassay kit (Cayman Chemical, Ann Arbor, Mich., U.S.A.). Data obtained with the compounds of the present invention, expressed as % of vehicle at their respective maximal concentration (100 μM), are reported in Table 2.

[3] = system: conscious spontaneously hypertensive rats (SHRs); assay: Assay for antihypertensive activity (in vivo), telemetry; design: species or system rat; settings: for Δ SBP in SHR (mmHg) 2-6 hrs / Δ SBP in SHR (mmHg) 21-24 hrs / Δ SBP in SHR (mmHg) 25-48 hrs / Δ SBP in SHR (mmHg) 12 hrs: delta versus own baseline
Protocol: Assay for Antihypertensive Activity (In Vivo)
The ability of the compounds of the invention to decrease blood pressure was evaluated in conscious spontaneously hypertensive rats (SHRs). SHRs (250-300 g) received a single oral dose of tested compounds. Systolic blood pressure (SBP) and heart rate were monitored by telemetry for […] after dosing. SBP was evaluated before (baseline) and at different time points (i.e. 2-6, 12, 21-24, 25-48 hours) following treatment by oral administration of the compounds. The data were processed both as the absolute value or as a delta between the absolute value and its own baseline.
The Dataquest IV telemetry system (Data Sciences International) was used for measurement of systolic pressure, diastolic pressure, mean arterial pressure, heart rate, and motor activity. The monitoring system consists of a transmitter (radio frequency transducer model TA11PA), receiver panel, consolidation matrix, and personal computer with accompanying software. Before the device was implanted, calibrations were verified to be accurate within ±3 mmHg. Rats were anesthetized with ketamine/xylazine/acepromazine, and the flexible catheter of the transmitter was surgically secured in the abdominal aorta just below the renal arteries. The transmitter was sutured subcutaneously. Rats were housed in individual cages after the operation. Each cage was placed over the receiver panel that was connected to the personal computer for data acquisition. The rats were unrestrained and free to move within their cages. Hemodynamic data were sampled every 2 minutes for 10 seconds.

[4] = vasorelaxation of rabbit aortic rings precontracted with noradrenaline 1 μM, functional endothelium

| Structure (SMILES) | EC50 [1, 4] [µM] | % of vehicle (mean ± sem at 100 μM) [2] | further results |
| --- | --- | --- | --- |
| O=C(CCC[C@@H](CO[N+](=O)[O-])O[N+](=O)[O-])O[C@@H]1CO[C@H]2[C@@H]1OC[C@H]2O [Example 4] | 0.11 ± 0.02 | 986.3 ± 90.0^ % of vehicle |  |
| O=C(CCCC(CO[N+](=O)[O-])O[N+](=O)[O-])O[C@@H]1CO[C@H]2[C@@H]1OC[C@H]2O (stereo partly drawn) [Example 1, (3R,3aR,6R,6aR)-6-hydroxyhexahydrofuro[3,2-b]furan-3-yl 5,6-bis(nitrooxy)hexanoate] | 0.11 ± 0.03 | 1029.6 ± 80.2 % of vehicle | BP lowering compared to precursor compound (isomannide) ([3]; SHR, single oral dose, result in words): BP lowering with extended peak effect and duration of action; Δ SBP in SHR (mmHg) 2-6 hrs ([3]; single oral dose 4.4 mpk): −13 mmHg; Δ SBP in SHR (mmHg) 21-24 hrs ([3]; single oral dose 4.4 mpk): −20 mmHg; Δ SBP in SHR (mmHg) 25-48 hrs ([3]; single oral dose 4.4 mpk): −16 mmHg; Δ SBP in SHR (mmHg) 12 hrs ([3]; single oral dose 4.4 mpk): −16 mmHg |
| O=C(CCOCC(CO[N+](=O)[O-])O[N+](=O)[O-])O[C@@H]1CO[C@H]2[C@@H]1OC[C@H]2O (stereo partly drawn) [Example 13, (3R,3aR,6R,6aR)-6-hydroxyhexahydrofuro[3,2-b]furan-3-yl 3-(2,3-bis(nitrooxy)propoxy)propanoate] | 0.1 ± 0.03 | 683 ± 86.3 % of vehicle |  |
| O=C(CCCCCO[N+](=O)[O-])O[C@@H]1CO[C@H]2[C@@H]1OC[C@H]2O [Example 3, (3R,3aR,6R,6aR)-6-hydroxyhexahydrofuro[3,2-b]furan-3-yl 6-(nitrooxy)hexanoate] | 2.5 ± 0.6 | 677.83 ± 79.6 % of vehicle |  |
| O[C@@H]1CO[C@H]2[C@@H]1OC[C@H]2O [Isomannide, 1,4:3,6-dianhydro-D-mannitol, reference compound] |  |  | relaxation (concentration-response curve) ([1]; rabbit aortic rings precontracted with noradrenaline, result in words): does not produce relaxation at any of the concentration tested; EC50 (μM) ± sem [1, 4]: no effect; Δ SBP in SHR (mmHg) 2-6 hrs ([3]; single oral dose 2.4 mpk): −3 mmHg; Δ SBP in SHR (mmHg) 21-24 hrs ([3]; single oral dose 2.4 mpk): −6 mmHg; Δ SBP in SHR (mmHg) 25-48 hrs ([3]; single oral dose 2.4 mpk): −6 mmHg; Δ SBP in SHR (mmHg) 12 hrs ([3]; single oral dose 2.4 mpk): −9 mmHg |
| CC(C)(CCOC(=O)O[C@@H]1CO[C@H]2[C@@H]1OC[C@H]2O)CC(CO[N+](=O)[O-])O[N+](=O)[O-] (stereo partly drawn) [Example 8, 3,3-dimethyl-5,6-bis(nitrooxy)hexyl (3R,3aR,6R,6aR)-6-hydroxyhexahydrofuro[3,2-b]furan-3-yl carbonate] | 0.06 ± 0.01 | 564 ± 59.0 % of vehicle |  |
| O=C(CCC[C@H](CO[N+](=O)[O-])O[N+](=O)[O-])O[C@@H]1CO[C@H]2[C@@H]1OC[C@H]2O [Example 5, (R)-((3R,3aR,6R,6aR)-6-hydroxyhexahydrofuro[3,2-b]furan-3-yl) 5,6-bis(nitrooxy)hexanoate] |  | 668 ± 64.7 % of vehicle |  |
| O=[N+]([O-])OCC(CCCCO[C@@H]1CO[C@H]2[C@@H]1OC[C@H]2O)O[N+](=O)[O-] (stereo partly drawn) [Example 6, 6-((3R,3aR,6R,6aR)-6-hydroxyhexahydrofuro[3,2-b]furan-3-yloxy)hexane-1,2-diyl dinitrate] | 0.91 ± 0.33 | 1620 ± 205.0 % of vehicle |  |
| O=C(CCCCCO[N+](=O)[O-])O[C@@H]1CO[C@H]2[C@@H]1OC[C@H]2OC(=O)CCCCCO[N+](=O)[O-] [Example 2, (3R,3aR,6R,6aR)-hexahydrofuro[3,2-b]furan-3,6-diyl bis(6-(nitrooxy)hexanoate)] | 3.1 ± 0.9 | 1082.67 ± 163.4 % of vehicle |  |
| O=C(O[C@@H]1CO[C@H]2[C@@H]1OC[C@H]2O)N1CCC(O[N+](=O)[O-])CC1 [Example 7, (3R,3aR,6R,6aR)-6-hydroxyhexahydrofuro[3,2-b]furan-3-yl 4-(nitrooxy)piperidine-1-carboxylate] | 4.4 ± 1.9 |  |  |
